In patent US10300155B2, “Alpha-synuclein ligands” (Washington University, priority 2015, dated 2019):
Where “and” joins values, the source holds several entries; their conditions need not be identical. Equal entries are not always repeated. Where two headings read alike, the source gives them in different places.

Molecular target: T1, α-synuclein fibrils (Homo sapiens, UniProt P37840)
T1 construct: made in house; host or cells: E. coli BL21(DE3)RIL
Test: ThT competitive assay for α-synuclein fibrils (Table 1)
Type: binding
Details: for EC50: α-synuclein fibrils
Description: Upon binding to amyloid fibrils, a peak at approximately 440 nm becomes dominant with the fluorescent emission maximum shifted to 480 nm. This is accompanied by a strong enhancement of the fluorescence.
α-Synuclein recombinant protein was produced in E. coli. […] Freshly transformed BL21 colonies were inoculated into 2 L baffled flasks containing 250 mL sterilized TB (1.2% bactotryptone, 2.4% yeast extract, 0.4% glycerol, 0.17 M KH2PO4, 0.72 M K2HPO4) with 50 μg/ml ampicillin, and incubated overnight at 37° C. with shaking.
To determine the concentration of fibrils, the reaction mixture (100 μL) was centrifuged at 18,000×g for 10 minutes to separate fibrils from monomer. The α-synuclein monomer and other soluble proteins in the supernatant were removed, and the fibril pellet was resuspended in 100 μL solution of Tris-HCl (20 mM) and NaCl (100 mM). This fibril suspension was used in a bicinchoninic acid (BCA) protein assay along with a bovine serum albumin (BSA) standard curve to determine the concentration of fibrils in the 72 hour fibril reaction mixture.
To prepare the fibrils for performing binding assays, the fibril reaction mixture prepared above was centrifuged at 18,000×g for 10 minutes.
Once the ThT-α-synuclein saturation binding curve and dissociation constant (Kd) were determined the competitive assay for determining the binding affinity of various test compounds was conducted. […] The mixture was incubated at room temperature for 60 minutes on the shaking plate. The fluorescent intensity for each cell was measured by the fluorescence reader at λex and λem. The Ki value for each compound was calculated by the corresponding inhibition curve.
The Ki values were derived from the EC50 values using the Cheng-Prusoff equation: Ki=EC50/(1+[radioligand]/Kd). See FIGS. 17.1-31.2 for the inhibition curves for each compound in the ThioT competitive binding assay.

[1] = average, read-out: Ki (nM) α-syn (avg)
[2] = individual determinations, read-out: Ki (nM) α-syn
[3] = average, read-out: EC50 (nM) EC50 (avg)
[4] = individual determinations, read-out: EC50 (nM) EC50

| Structure (SMILES) | Ki [1] | Ki [2] | EC50 [3] | EC50 [4] |
| --- | --- | --- | --- | --- |
| COc1ccc(C(=O)C2CCN(C(=O)c3ccc(/C=C/c4ccncc4)cc3)CC2)cc1 [TZ-20-51] | 184 nM | 184 nM |  |  |
| COc1ccc(/C=C/c2cnccn2)cc1OC [TZ-22-37-1] | 213 nM | 213 nM |  |  |
| COc1ccc2ccc(/C=C/c3cnccn3)nc2c1 [TZ-23-16] | 3180 nM | 3180 nM |  |  |
| COc1ccc2nc(/C=C/c3cccs3)ccc2c1 [TZ-36-50] | 403 nM | 403 nM | 1050 nM | 1050 nM |
| C(=C\c1cccs1)/c1ccncc1 [TZ-34-100] | 604 nM | 604 nM | 1580 nM | 1580 nM |
| COC(=O)c1ccc2oc(-c3ccc(-c4ccc(F)nc4)c(C(F)(F)F)c3)nc2c1 [TZ-31-125] | 1560 nM | 1560 nM | 4090 nM | 4090 nM |
| COc1ccccc1NC(=O)c1ccc(/C=C/c2ccncc2)cc1 [TZ-20-81] | 150 nM | 150 nM |  |  |
| Brc1ccc(/C=C/c2ccsc2)cc1 [TZ-34-58] | 319 nM | 319 nM | 834 nM | 834 nM |
| O=[N+]([O-])c1ccc(/C=C/c2ccncc2)cc1 [TZ-20-59] | 52.8 nM | 52.8 nM |  |  |
| CNc1ccc(/C=C/c2ccncc2)cc1 [TZ-20-97] |  | 33.9 nM |  |  |
| COc1ccc2nc(/C=C/c3cnccn3)ccc2c1 [TZ-23-12] | 36.4 nM | 36.4 nM |  |  |
| Ic1ccc(/C=C/c2ccoc2)cc1 [TZ-34-86] | 134 nM | 117 nM and 152 nM | 352 nM | 306 nM and 398 nM |
| CN(C)c1ccc(/C=C/CN2c3ccccc3Oc3ccccc32)cc1 [TZ-19-138] | 3090 nM | 3090 nM |  |  |
| COc1ccc2c(c1)NC(=O)/C(=C/C=C/c1ccc([N+](=O)[O-])cc1)S2 [TZ-19-124] | 254 nM | 254 nM |  |  |
| COc1ccc(C2CCN(C(=O)c3ccc(/C=C/c4ccncc4)cc3)CC2)cc1 [TZ-20-39] | 2460 nM | 2460 nM |  |  |
| COc1ccc2nc(/C=C/c3ccnc(F)c3)ccc2c1 [TZ-36-26-2T] | 434 nM |  | 1140 nM |  |
| COc1cccc(/C=C/c2cnccn2)c1 [TZ-22-49-1] | 117 nM | 117 nM |  |  |
| COc1ccc2nc(/C=C/c3ccncc3Cl)ccc2c1 [TZ-36-48] | 414 nM | 414 nM | 1080 nM | 1080 nM |
| O=C(Nc1ccc(I)cc1)c1ccc(/C=C/c2ccncc2)cc1 [TZ-23-56] | 19.8 nM | 19.8 nM |  |  |
| OCc1ccc2oc(-c3ccc(-c4ccc(F)nc4)c(C(F)(F)F)c3)nc2c1 [TZ-31-123] | 31400 nM | 31400 nM | 82000 nM | 82000 nM |
| COc1cccc2nc(/C=C/c3ccccc3)ccc12 [TZ-19-152] | 532 nM | 532 nM |  |  |
| COc1ccc2nc(/C=C/c3ccc(Cl)nc3)ccc2c1 [TZ-36-38] | 39 nM | 31 nM and 47 nM | 101 nM | 80 nM and 122 nM |

| Structure (SMILES) | Ki [1] | Ki [2] | EC50 [3] | EC50 [4] |
| --- | --- | --- | --- | --- |
| O=C(OCCF)c1ccc(/C=C/c2ccncc2)cc1 [TZ-20-63] | 96 nM | 96 nM |  |  |
| Brc1ccc(/C=C/c2cccs2)cc1 [TZ-34-55] | 198 nM | 198 nM | 519 nM | 519 nM |
| COc1ccc(/C=C/c2ccncn2)cc1 [TZ-22-19-1] | 154 nM | 154 nM |  |  |
| COc1cc(/C=C/c2cnccn2)nc2ccccc12 [TZ-23-20] | 3030 nM | 3030 nM |  |  |
| COc1ccc(/C=C/c2ccc(-c3cccs3)s2)cc1 [TZ-34-40] | 450 nM | 500 nM and 400 nM | 1180 nM | 1310 nM and 1050 nM |
| COc1ccc(/C=C/c2cnccn2)cc1 [TZ-22-1-2] | 31.9 nM | 31.9 nM |  |  |
| O=[N+]([O-])c1ccc(/C=C/c2cccs2)cc1 [TZ-34-74] | 55 nM | 55 nM | 145 nM | 145 nM |
| COc1ccc(C2CCN(C(=O)COC(=O)c3ccc(C(C)(C)C)cc3)CC2)cc1 [TZ-20-23] | 109 nM | 109 nM |  |  |
| CNC(=O)c1ccc(/C=C/c2ccncc2)cc1 [TZ-20-69] | 85.6 nM | 85.6 nM |  |  |
| COc1ccc(/C=C/c2cc(Br)cs2)cc1 [TZ-34-39] | 256 nM | 233 nM and 278 nM | 668 nM | 609 nM and 727 nM |
| O=C(NCCF)c1ccc(/C=C/c2ccncc2)cc1 [TZ-20-79] | 115 nM | 115 nM |  |  |
| CN(C)c1ccc(/C=C/c2cnccn2)cc1 [TZ-22-35-1] | 698 nM | 698 nM |  |  |
| C(=C\c1ccccc1)/CN1c2ccccc2Oc2ccccc21 [TZ-19-136] | 3060 nM | 3060 nM |  |  |
| O=C(Nc1ccc(OCCF)cc1)c1ccc(/C=C/c2ccncc2)cc1 [TZ-23-88] | 32.1 nM | 24.3 nM and 40 nM | 83.8 nM | 63.5 nM and 104 nM |
| COc1ccc2nc(/C=C/c3ccncc3Br)ccc2c1 [TZ-36-46] | 168 nM | 140 nM and 195 nM | 437 nM | 365 nM and 509 nM |
| Brc1ccc(/C=C/c2cnccn2)cc1 [TZ-22-47-1] | 76.7 nM | 76.7 nM |  |  |
| Ic1ccc(/C=C/c2cccs2)cc1 [TZ-34-63] | 80 nM | 80 nM | 208 nM | 208 nM |
| COc1ccc(/C=C/c2ncccn2)cc1 [TZ-22-31-1] | 2770 nM | 2770 nM |  |  |
| O=C(Nc1ccc(Br)cc1)c1ccc(/C=C/c2ccncc2)cc1 [TZ-23-52] | 10.4 nM |  |  |  |
| COc1ccc2nc(/C=C/c3ccccc3)ccc2c1 [TZ-19-144] | 196 nM | 196 nM |  |  |
| COc1ccc2c(c1)NC(=O)/C(=C/C=C/c1ccc([N+](=O)[O-])cc1)O2 [TZ-19-122] | 598 nM | 598 nM |  |  |
| COc1ccc(/C=C/c2ccc(C=O)s2)cc1 [TZ-34-41] | 148 nM | 148 nM | 387 nM | 387 nM |

| Structure (SMILES) | Ki [1] | Ki [2] | EC50 [3] | EC50 [4] |
| --- | --- | --- | --- | --- |
| COc1ccc(/C=C/c2cc(C)cs2)cc1 [TZ-34-38] | 252 nM | 387 nM and 114 nM and 256 nM | 661 nM | 1010 nM and 299 nM and 671 nM |
| COc1ccc2c(c1)Oc1cc([N+](=O)[O-])ccc1N2C/C=C/c1ccc(N(C)C)cc1 [TZ-19-140] | 467 nM | 467 nM |  |  |
| COc1ccc(NC(=O)c2ccc(/C=C/c3ccncc3)cc2)cc1 [TZ-20-83] |  | 19.1 nM |  |  |
| Fc1ccc2nc(/C=C/c3cnccn3)ccc2c1 [TZ-36-22] | 109 nM | 109 nM | 286 nM | 286 nM |
| COc1cccc2nc(/C=C/c3ccncc3)ccc12 [TZ-23-06] | 96.3 nM | 96.3 nM |  |  |
| COc1ccc(C(=O)C2CCN(C(=O)COC(=O)c3ccc(C(C)(C)C)cc3)CC2)cc1 [TZ-20-11] | 5090 nM | 5090 nM |  |  |
| COc1ccc(/C=C/c2cc3ccccc3s2)cc1 [TZ-34-87] | 884 nM | 884 nM | 2310 nM | 2310 nM |
| COc1ccc2ccc(/C=C/c3ccccc3)nc2c1 [TZ-19-146] | 666 nM | 666 nM |  |  |
| O=[N+]([O-])c1ccc2nc(/C=C/c3cnccn3)ccc2c1 [TZ-36-20] | 926 nM | 926 nM | 2420 nM | 2420 nM |
| CC(C)OC(=O)c1ccc(/C=C/c2ccncc2)cc1 [TZ-20-65] | 75.6 nM | 75.6 nM |  |  |
| CN(C)c1ccc(/C=C/C=C/c2cccs2)cc1 [TZ-34-97] | 69 nM | 69 nM | 180 nM | 180 nM |
| Fc1ccc(-c2ccc(-c3nc4cc(Br)ccc4o3)cc2C(F)(F)F)cn1 [TZ-31-108] | 1540 nM | 1540 nM | 4030 nM | 4030 nM |
| COc1ccc2nc(/C=C/c3ccccn3)ccc2c1 [TZ-36-34] | 193 nM | 193 nM | 504 nM | 504 nM |
| COc1ccc(/C=C/c2ccc(C(=O)NCCF)s2)cc1 [TZ-34-94] | 160 nM | 223 nM and 61 nM and 197 nM | 419 nM | 583 nM and 160 nM and 514 nM |
| COc1ccc(/C=C/c2cncs2)cc1 [TZ-34-35] | 323 nM | 313 nM and 333 nM | 845 nM | 819 nM and 871 nM |
| COc1ccc2nc(/C=C/c3ccncc3)ccc2c1 [TZ-19-158] | 29.1 nM | 29.1 nM |  |  |
| Ic1ccc(/C=C/c2ccsc2)cc1 [TZ-34-64] | 115 nM | 115 nM | 300 nM | 300 nM |
| Fc1ccc(/C=C/c2cccs2)cc1 [TZ-34-60] | 1000 nM | 1000 nM | 1000 nM | 1000 nM |
| Fc1ccc(/C=C/c2ccncc2)cc1 [TZ-20-73] | 432 nM | 432 nM |  |  |
| COC(=O)C(Cc1ccc(O)cc1)NC(=O)c1ccc(/C=C/c2ccncc2)cc1 (stereo not shown) [TZ-20-77] | 523 nM | 523 nM |  |  |
| FC(F)(F)c1ccc(/C=C/c2ccncc2)cc1 [TZ-20-75] | 36.8 nM | 36.8 nM |  |  |
